Data reported in ChEMBL document CHEMBL1833859, “Discovery of novel imidazo[1,2-a]pyrazin-8-amines as Brk/PTK6 inhibitors” (Bioorg Med Chem Lett, 2011).
pIC50: −log10 of the molar value.

Experiments:
[1] = target: T1, Protein-tyrosine kinase 6 (Homo sapiens, UniProt Q13882); assay: Inhibition of BRK pretreated for 30 mins by microplate reader
[2] = target: Aurora kinase B (Homo sapiens, UniProt Q96GD4); assay: Inhibition of AurB
[3] = target: T1, Protein-tyrosine kinase 6; assay: Inhibition of phosphorylation of SAM68 in 293 WT-PTK6 cells after 3 hrs; assay type: functional, cell-based
[4] = target: Tyrosine-protein kinase Lck (Homo sapiens, UniProt P06239); assay: Inhibition of LCK
Chain of Tyrosine-protein kinase Lck (P06239 whole entry): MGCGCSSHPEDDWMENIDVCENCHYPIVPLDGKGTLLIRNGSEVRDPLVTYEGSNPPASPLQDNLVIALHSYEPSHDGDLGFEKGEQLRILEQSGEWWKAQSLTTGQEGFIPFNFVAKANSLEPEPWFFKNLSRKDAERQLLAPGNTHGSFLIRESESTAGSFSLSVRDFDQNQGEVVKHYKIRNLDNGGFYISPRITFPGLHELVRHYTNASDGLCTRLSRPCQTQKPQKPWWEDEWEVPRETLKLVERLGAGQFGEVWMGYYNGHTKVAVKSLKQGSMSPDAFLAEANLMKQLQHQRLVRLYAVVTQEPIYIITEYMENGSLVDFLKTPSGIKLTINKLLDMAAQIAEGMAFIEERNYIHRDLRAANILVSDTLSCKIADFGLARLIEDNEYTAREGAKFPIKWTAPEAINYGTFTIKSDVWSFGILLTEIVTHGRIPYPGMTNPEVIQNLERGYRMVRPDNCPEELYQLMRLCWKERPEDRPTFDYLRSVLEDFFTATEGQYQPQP

[5] = AUC in rat at 10 mg/kg, po; assay type: ADME, organism-based; design: dose 10 mg/kg, route oral; conditions: plasma
[6] = Drug level in rat at 10 mg/kg, po at 6 hrs; assay type: ADME, organism-based; design: dose 10 mg/kg, route oral; conditions: in vivo, read-out: Drug uptake

Chain of Aurora kinase B (Q96GD4 whole entry): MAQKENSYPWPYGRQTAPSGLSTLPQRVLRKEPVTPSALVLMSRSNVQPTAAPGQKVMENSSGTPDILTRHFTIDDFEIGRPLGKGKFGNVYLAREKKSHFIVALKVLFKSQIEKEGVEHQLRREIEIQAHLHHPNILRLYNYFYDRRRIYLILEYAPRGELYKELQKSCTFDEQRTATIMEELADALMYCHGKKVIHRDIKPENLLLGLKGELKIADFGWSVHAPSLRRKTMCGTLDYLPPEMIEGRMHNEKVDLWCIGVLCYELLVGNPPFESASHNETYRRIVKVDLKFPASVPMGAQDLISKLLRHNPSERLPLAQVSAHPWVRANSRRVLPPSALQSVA
T1 sequence (Q13882 whole entry): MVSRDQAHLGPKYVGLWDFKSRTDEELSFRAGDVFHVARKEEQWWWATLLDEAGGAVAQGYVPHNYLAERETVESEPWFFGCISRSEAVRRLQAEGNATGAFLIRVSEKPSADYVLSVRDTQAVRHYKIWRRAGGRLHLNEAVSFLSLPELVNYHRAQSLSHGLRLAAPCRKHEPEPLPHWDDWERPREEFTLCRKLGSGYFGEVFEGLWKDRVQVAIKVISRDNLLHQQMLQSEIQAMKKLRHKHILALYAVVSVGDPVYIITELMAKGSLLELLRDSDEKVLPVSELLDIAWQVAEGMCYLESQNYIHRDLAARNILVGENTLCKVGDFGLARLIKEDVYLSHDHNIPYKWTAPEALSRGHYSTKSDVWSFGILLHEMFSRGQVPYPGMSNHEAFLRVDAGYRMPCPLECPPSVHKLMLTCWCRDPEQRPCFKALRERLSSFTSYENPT

Compound	pIC50 [1]	pIC50 [2]	pIC50 [3]	pIC50 [4]	AUC [5]	concentration at 6 h [6]
Cc1cn2c(-c3cn[nH]c3)cnc2c(Nc2cc(CN3CCCCC3)ns2)n1	7.89	> 7.89	7.03			
CCc1nc2c(Nc3ccc(C(=O)N4CCNCC4)c(Cl)c3)nc(C)cn2c1-c1cn[nH]c1	< 5.00					
Cc1cn2c(-c3cn[nH]c3)c(C3CC3)nc2c(Nc2ccc(C(=O)N3CCNCC3)c(Cl)c2)n1	< 5.00					
Cc1cn2c(-c3cn[nH]c3)c(C(C)C)nc2c(Nc2ccc(C(=O)N3CCNCC3)c(Cl)c2)n1	< 5.00					
O=C(c1ccc(Nc2nccn3c(-c4cn[nH]c4)cnc23)cc1Cl)N1CCNCC1	6.41					
CCc1cn2c(-c3cn[nH]c3)cnc2c(Nc2ccc(C(=O)N3CCNCC3)c(Cl)c2)n1	8.00	6.19	7.42	6.14		
O=C(c1ccc(Nc2nc(C3CC3)cn3c(-c4cn[nH]c4)cnc23)cc1Cl)N1CCNCC1	8.22	5.59	7.66	5.74		
CC(C)c1cn2c(-c3cn[nH]c3)cnc2c(Nc2ccc(C(=O)N3CCNCC3)c(Cl)c2)n1	6.32					
Cc1cn2c(-c3cn[nH]c3)cnc2c(Nc2ccc(C(=O)O)c(Cl)c2)n1	7.01					
Cc1cn2c(-c3cn[nH]c3)cnc2c(Nc2cc(Cl)cc(C(=O)N3CCNCC3)c2)n1	6.98					
Cc1cn2c(-c3cn[nH]c3)cnc2c(N[C@H]2CC[C@H](C(=O)N3CCNCC3)CC2)n1	6.10					
CCOc1cc(Nc2nc(C)cn3c(-c4cn[nH]c4)cnc23)sc1C(=O)N1CCCC(C)C1 (configuration not stated)	8.00	> 7.89		6.48		
Cc1cn2c(-c3cn[nH]c3)cnc2c(Nc2cc(C(=O)N(C)C)ns2)n1	7.92					
Cc1cn2c(-c3cn[nH]c3)cnc2c(Nc2ccnc(N3CCNCC3)c2)n1	7.96	6.25	6.96	5.43		
Cc1cn2c(-c3cn[nH]c3)cnc2c(Nc2cncc(N3CCNCC3)c2)n1	7.12		6.61			
Cc1cn2c(-c3cn[nH]c3)cnc2c(Nc2ccc(N3CCOCC3)nc2)n1	6.31					
Cc1cn2c(-c3cn[nH]c3)cnc2c(Nc2cc(CN3CCC(O)CC3)cs2)n1	8.00	> 7.89				
Cc1cn2c(-c3cn[nH]c3)cnc2c(Nc2ccc(C(=O)N3CCNCC3)cc2)n1	7.82	6.63	6.78	6.22		
Cc1cn2c(-c3cn[nH]c3)cnc2c(Nc2ccc(C(=O)N3CCNCC3)c(F)c2)n1	7.49	6.84	6.82			
Cc1cn2c(-c3cn[nH]c3)cnc2c(Nc2ccc(C(=O)N3CCNCC3)c(C(F)(F)F)c2)n1	8.15	7.08	7.46	6.14		
COc1cc(Nc2nc(C)cn3c(-c4cn[nH]c4)cnc23)ccc1C(=O)N1CCNCC1	7.64	6.08	7.66			
Cc1cn2c(-c3cn[nH]c3)cnc2c(Nc2ccc(C(=O)N3CCNCC3)c(C3CC3)c2)n1	7.42	6.89	7.40	6.77		
Cc1cn2c(-c3cn[nH]c3)cnc2c(Nc2ccc(C(=O)N3CCN(C)CC3)c(Cl)c2)n1	8.10		< 6.22			
Cc1cn2c(-c3cn[nH]c3)cnc2c(Nc2ccc(C(=O)N3CCNC(=O)C3)c(Cl)c2)n1	8.52		< 5.52			
CC(=O)N1CCN(C(=O)c2ccc(Nc3nc(C)cn4c(-c5cn[nH]c5)cnc34)cc2Cl)CC1	7.80		< 5.52			
Cc1cn2c(-c3cn[nH]c3)cnc2c(Nc2ccc(C(=O)N3CCN(CCO)CC3)c(Cl)c2)n1	7.17		6.88	5.92		
Cc1cn2c(-c3cn[nH]c3)cnc2c(Nc2ccc(C(=O)N3CCCCC3)c(Cl)c2)n1	7.03		6.22			
Cc1cn2c(-c3cn[nH]c3)cnc2c(Nc2ccc(C(=O)N3CCOCC3)c(Cl)c2)n1	8.10	7.37	6.60	5.70	12.6 µM·h	1000 nM
